Measurements taken from patent US20240190874A1, “SMALL MOLECULE DEGRADERS OF ANDROGEN RECEPTOR” (THE REGENTS OF THE UNIVERSITY OF MICHIGAN, priority 2021, published 2024).

Legend:
Assay type in all cases: cell-based
LNCaP cells = experiment: Cellular potency (IC50) in LNCaP cells; settings: Homo sapiens, LNCaP
Experimental: (§1) Biological Assays. LNCaP and VCaP cells used were purchased from American Type Culture Collection (ATCC). LNCaP were grown in RPMI 1640 (Invitrogen) and VCaP cells were grown in DMEM with Glutamax (Invitrogen). All of the cells were supplemented with 10% fetal bovine serum (Invitrogen) at 37° C. in a humidified 5% CO2 incubator.

AR = molecular target: T1, AR (Homo sapiens, UniProt P10275); experiment: Degradation of AR in VCaP cells; settings: VCaP cells; for Dmax: VCaP
T1 construct: Degradation of AR; Cellular potency; host or cells: VCaP cells
T1 sequence (P10275 1-920): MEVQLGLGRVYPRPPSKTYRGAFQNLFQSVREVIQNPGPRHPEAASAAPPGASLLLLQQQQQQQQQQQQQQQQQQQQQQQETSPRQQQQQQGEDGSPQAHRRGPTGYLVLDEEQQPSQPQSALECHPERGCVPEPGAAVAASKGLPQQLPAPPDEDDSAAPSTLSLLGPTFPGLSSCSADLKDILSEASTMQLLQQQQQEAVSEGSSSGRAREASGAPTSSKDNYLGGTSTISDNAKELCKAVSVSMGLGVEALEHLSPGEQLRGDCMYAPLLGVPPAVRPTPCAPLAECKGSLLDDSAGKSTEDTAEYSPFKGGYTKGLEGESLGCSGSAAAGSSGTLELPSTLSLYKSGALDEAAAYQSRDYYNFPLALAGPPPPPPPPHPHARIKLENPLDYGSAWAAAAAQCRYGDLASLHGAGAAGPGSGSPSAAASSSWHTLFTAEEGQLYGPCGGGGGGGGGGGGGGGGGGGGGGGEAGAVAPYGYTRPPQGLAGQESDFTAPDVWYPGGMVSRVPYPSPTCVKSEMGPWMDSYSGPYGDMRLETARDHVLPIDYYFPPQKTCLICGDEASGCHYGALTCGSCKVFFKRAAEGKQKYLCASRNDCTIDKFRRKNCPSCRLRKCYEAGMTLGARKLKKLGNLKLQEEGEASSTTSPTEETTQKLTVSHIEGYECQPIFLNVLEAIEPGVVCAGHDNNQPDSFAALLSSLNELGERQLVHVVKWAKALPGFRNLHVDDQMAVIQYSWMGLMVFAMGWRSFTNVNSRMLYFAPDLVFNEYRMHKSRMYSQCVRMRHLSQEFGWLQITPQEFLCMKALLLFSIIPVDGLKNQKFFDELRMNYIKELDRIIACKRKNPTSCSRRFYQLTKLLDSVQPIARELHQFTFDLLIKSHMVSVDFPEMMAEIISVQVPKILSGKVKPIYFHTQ
Experimental: as §1

VCaP cells = experiment: Cellular potency (IC50) in VCaP cells; settings: Homo sapiens, VCaP
Experimental: as §1

Compound | IC50 (LNCaP cells) [nM] | Dmax (AR) [%] | IC50 (VCaP cells) [nM] | DC50 (AR) [nM]
C=C1CCC(N2C(=O)c3ccc(N4CCC(N5CCN(Cc6ccc(N7CCC8(CC7)C[C@H](C)N(c7ccc(C#N)c(Cl)c7)C8)cc6)CC5)CC4)cc3C2=O)C(=O)N1 (stereo partly shown) [compound 18] | < 10 | > 90 | < 10 | 
C[C@H]1CC2(CCN(c3ccc(CN4CCC(N5Cc6cc7c(cc6C5)C(=O)N(C5CCC(=O)NC5=O)C7=O)CC4)cc3)CC2)CN1c1ccc(C#N)c(Cl)c1 (stereo partly shown) [compound 19] | < 100 | 70 to 90 | < 100 | < 100
C[C@H]1CC2(CCN(c3ccc(CN4CCC(CN5Cc6cc7c(cc6C5)C(=O)N(C5CCC(=O)NC5=O)C7=O)CC4)cc3)CC2)CN1c1ccc(C#N)c(Cl)c1 (stereo partly shown) [compound 20] | < 100 | 70 to 90 | < 100 | < 100
C[C@H]1CC2(CCN(c3ccc(C4CCN(CC5CN(c6ccc7c(c6)C(=O)N(C6CCC(=O)NC6=O)C7=O)C5)CC4)cc3)CC2)CN1c1ccc(C#N)c(Cl)c1 (stereo partly shown) [compound 21] | < 10 | > 90 | < 10 | < 1
C[C@H]1CC2(CCN(c3ccc(C4CCN(C5CN(c6ccc7c(c6)C(=O)N(C6CCC(=O)NC6=O)C7=O)C5)CC4)cc3)CC2)CN1c1ccc(C#N)c(Cl)c1 (stereo partly shown) [compound 22] | < 100 | 70 to 90 | < 100 | < 100
C=C1CCC(N2C(=O)c3ccc(N4CC(N5CCC(Cc6ccc(N7CCC8(CC7)C[C@H](C)N(c7ccc(C#N)c(Cl)c7)C8)cc6)CC5)C4)cc3C2=O)C(=O)N1 (stereo partly shown) [compound 23] | < 10 | > 90 | < 10 | 
C=C1CCC(N2C(=O)c3ccc(N4CCC(N5CCC(Cc6ccc(N7CCC8(CC7)C[C@H](C)N(c7ccc(C#N)c(Cl)c7)C8)cc6)CC5)CC4)cc3C2=O)C(=O)N1 (stereo partly shown) [compound 24] | < 10 | > 90 | < 10 | 
C[C@H]1CC2(CCN(c3ccc(CC4CCN(CC5CN(c6ccc7c(c6)C(=O)N(C6CCC(=O)NC6=O)C7=O)C5)CC4)cc3)CC2)CN1c1ccc(C#N)c(Cl)c1 (stereo partly shown) [compound 25] | < 10 | > 90 | < 10 | < 1
C[C@H]1CC2(CCN(c3ccc(CC4CCN(CC5CCN(c6ccc7c(c6)C(=O)N(C6CCC(=O)NC6=O)C7=O)CC5)CC4)cc3)CC2)CN1c1ccc(C#N)c(Cl)c1 (stereo partly shown) [compound 26] | < 10 | > 90 | < 10 | < 1
C[C@H]1CC2(CCN(c3ccc(N4CCN(C5CN(c6ccc7c(c6)C(=O)N(C6CCC(=O)NC6=O)C7=O)C5)CC4)cc3)CC2)CN1c1ccc(C#N)c(Cl)c1 (stereo partly shown) [compound 27] | < 10 | > 90 | < 10 | < 1
C[C@H]1CC2(CCN(c3ccc(N4CCN(CC5CN(c6ccc7c(c6)C(=O)N(C6CCC(=O)NC6=O)C7=O)C5)CC4)cc3)CC2)CN1c1ccc(C#N)c(Cl)c1 (stereo partly drawn) [compound 28, 2-chloro-4-((3S)-8-(4-(4-((1-(2-(2,6-dioxopiperidin-3-yl)-1,3-dioxoisoindolin-5-yl)azetidin-3-yl)methyl)piperazin-1-yl)phenyl)-3-methyl-2,8-diazaspiro[4.5]decan-2-yl)benzonitrile] | < 10 | > 90 | < 10 | 
C[C@H]1CC2(CCN(c3ccc(N4CCN(C5CCN(c6ccc7c(c6)C(=O)N(C6CCC(=O)NC6=O)C7=O)CC5)CC4)cc3)CC2)CN1c1ccc(C#N)c(Cl)c1 (stereo partly shown) [compound 29] | < 100 | > 90 | < 100 | < 100
C[C@H]1CC2(CCN(c3ccc(N4CCN(CC5CCN(c6ccc7c(c6)C(=O)N(C6CCC(=O)NC6=O)C7=O)CC5)CC4)cc3)CC2)CN1c1ccc(C#N)c(Cl)c1 (stereo partly shown) [compound 30] | < 10 | > 90 | < 10 | < 1
C[C@H]1CC2(CCN(c3ccc(N4CCN(CC5CN(c6ccc7c(c6)C(=O)N(C6CCC(=O)NC6=O)C7=O)C5)CC4)cn3)CC2)CN1c1ccc(C#N)c(Cl)c1 (stereo partly shown) [compound 31] | < 10 | > 90 | < 10 | < 1
